From US20040152641A1, “Use of polymethoxylated flavones for treating insulin resistance” (priority 2001, published 2004)
Converted amounts (≈) assume the structure as drawn.

Columns and labels:
[1] = tested on: hamsters with casein-induced hypercholesterolemia; details: 0.13-1.0% supplementation; cited from earlier work
[2] = tested on: human liver cell line HepG2; details: cited from earlier work
[3] = tested on: HepG2 cells; test: Medium apo B in HepG2 cells made insulin-resistant by long-term insulin incubation; format: cell-based, human; details: insulin plus 25 μg/mL tangeretin, 5 days, Elisa
Description: In the cell culture study, 80-90% confluent HepG2 cells were incubated for 5 days with the following media:
1. Minimum essential medium containing 1% bovine serum albumin (MEM+BSA)
2. The same medium containing […] bovine insulin
All media were changed on day 3 to maintain high concentration of insulin (which undergoes partial degradation after long-term incubation). After 5 days, media and cells were collected. Medium concentrations of apo B were measured by Elisa and expressed as μg per mg cell protein as described previously^8.

[4] = tested on: hamsters made insulin resistant by feeding 60% fructose diet; test: Hamsters made insulin resistant by 60% fructose diet, tangeretin supplementation, 2 weeks; details: for HDL cholesterol / Insulin / NEFA / NO2/NO3 / Triacylglycerols / VLDL + LDL cholesterol / Total cholesterol: serum, mean ± SD
Description: Diets were pair-fed to control for 2 weeks. After that time, fasting blood samples were collected by heart puncture for measurement of plasma lipids, glucose, NEFA, insulin and nitrites/nitrates (end products of nitric oxide metabolism). Total cholesterol in whole serum and in HDL fraction as well as total triglycerides and glucose were measured by enzymatic timed-endpoint methods, using the Beckman Coulter reagents and SYNCHRON™ LX System. VLDL+LDL cholesterol concentrations were calculated as a difference between total and HDL cholesterol. NEFA were determined enzymatically by NEFA C kit (Wako Chemicals USA Inc., Richmond, Va.). Serum insulin was measured using Rat Insulin RIA kit from Linco Research Inc. St. Charles, Mo. Serum nitrates/nitrites concentrations were determined using Nitrate/Nitrite Colorimetric Assay kit from Cayman Chemical Co., Ann Arbor, Mich.

[5] = tested on: alpha-glucosidase; details: cited from earlier work
[6] = target: alpha-glucosidase Type 1 from bakers yeast (Saccharomyces cerevisiae, UniProt P53341); test: In vitro inhibition of alpha-glucosidase; format: biochemical; details: 30 min, 37° C., p-nitrophenyl-alpha-D-glucopyranoside
Sequence of alpha-glucosidase Type 1 from bakers yeast (P53341 whole entry): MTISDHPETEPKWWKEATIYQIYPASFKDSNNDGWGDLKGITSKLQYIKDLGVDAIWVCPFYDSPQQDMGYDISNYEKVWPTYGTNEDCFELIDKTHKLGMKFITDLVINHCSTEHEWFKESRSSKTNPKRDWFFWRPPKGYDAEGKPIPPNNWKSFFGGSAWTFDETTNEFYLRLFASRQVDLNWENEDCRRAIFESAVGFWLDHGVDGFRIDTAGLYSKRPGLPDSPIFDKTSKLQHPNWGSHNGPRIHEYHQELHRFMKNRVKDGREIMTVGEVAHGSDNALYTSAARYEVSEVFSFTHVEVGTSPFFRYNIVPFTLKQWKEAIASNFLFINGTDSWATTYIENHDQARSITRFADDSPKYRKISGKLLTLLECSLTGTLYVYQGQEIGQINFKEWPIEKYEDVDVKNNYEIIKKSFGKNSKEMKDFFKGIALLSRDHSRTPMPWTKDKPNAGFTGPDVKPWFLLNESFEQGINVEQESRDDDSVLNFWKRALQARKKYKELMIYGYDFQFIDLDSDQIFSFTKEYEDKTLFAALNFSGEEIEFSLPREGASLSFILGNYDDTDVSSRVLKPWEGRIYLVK
Description: For the assay, alpha-glucosidase Type 1 from bakers yeast was incubated for 30 min, at 37° C., in the presence of substrate (p-nitrophenyl-alpha-D-glucopyranoside) and in the presence vs. absence of citrus flavonoids or coumarins at concentrations ranging from 3 to 200 μg/mL (0.01 to 1.8 mM). The reaction was stopped by addition of 0.2 M Na2CO3 and absorbance was measured at 405 nm. Background absorbance (without enzyme) was subtracted for every flavonoid or coumarins concentration used. The inhibitory activity was expressed as percent control and IC50 values (concentrations of compounds required to inhibit alpha-glucosidase by 50%) were calculated.

COc1ccc(-c2cc(=O)c3c(OC)c(OC)c(OC)c(OC)c3o2)cc1 [Tangeretin, 5,6,7,8,4′-pentamethoxyflavone]
serum content of triacylglycerols and cholesterol [1]: significantly reduced | production of apolipoprotein B (apo B) [2]: substantially reduced | medium apo B reduced, compared to insulin alone [3]: 69% | growth rate and food consumption between the groups ([4]; 0.25-1.0% tangeretin, pair-fed, 2 weeks): no significant difference | % change HDL cholesterol ([4]; +0.25% Tan vs fructose group): 0% | % change Insulin ([4]; +0.25% Tan vs fructose group): −13% | % change NEFA ([4]; +0.25% Tan vs fructose group): −23% | % change Total cholesterol ([4]; +0.25% Tan vs fructose group): −5% | % change Triacylglycerols ([4]; +0.25% Tan vs fructose group): −24% | % change HDL cholesterol ([4]; +0.5% Tan vs fructose group): −17% | % change Insulin ([4]; +0.5% Tan vs fructose group): −13% | % change NEFA ([4]; +0.5% Tan vs fructose group): −22% | % change Total cholesterol ([4]; +0.5% Tan vs fructose group): −22% | % change Triacylglycerols ([4]; +0.5% Tan vs fructose group): −27% | % change HDL cholesterol ([4]; +1.0% Tan vs fructose group): −27% | % change Insulin ([4]; +1.0% Tan vs fructose group): −20% | % change NEFA ([4]; +1.0% Tan vs fructose group): −18% | % change NO2/NO3 ([4]; +1.0% Tan vs fructose group): +99% | % change Total cholesterol ([4]; +1.0% Tan vs fructose group): −20% | % change Triacylglycerols ([4]; +1.0% Tan vs fructose group): −32% | HDL cholesterol ([4]; fructose +0.25% Tan): 2.55 ± 0.72 mmol/L | Insulin ([4]; fructose +0.25% Tan): 735 ± 315 pmol/L | NEFA ([4]; fructose +0.25% Tan): 1.48 ± 0.36 mEq/L | NO2/NO3 ([4]; fructose +0.25% Tan): 55.2 ± 18.8 µmol/L | Triacylglycerols ([4]; fructose +0.25% Tan): 1.51 ± 0.56 mmol/L | VLDL + LDL cholesterol ([4]; fructose +0.25% Tan): 0.62 ± 0.3 mmol/L | HDL cholesterol ([4]; fructose +0.5% Tan): 1.93 ± 0.48 mmol/L | Insulin ([4]; fructose +0.5% Tan): 729 ± 239 pmol/L | NEFA ([4]; fructose +0.5% Tan): 1.50 ± 0.33 mEq/L | NO2/NO3 ([4]; fructose +0.5% Tan): 52.0 ± 18.5 µmol/L | Total cholesterol ([4]; fructose +0.5% Tan): 2.61 ± 0.43 mmol/L | Triacylglycerols ([4]; fructose +0.5% Tan): 1.45 ± 0.52 mmol/L | VLDL + LDL cholesterol ([4]; fructose +0.5% Tan): 0.68 ± 0.28 mmol/L | HDL cholesterol ([4]; fructose +1.0% Tan): 1.88 ± 0.26 mmol/L | Insulin ([4]; fructose +1.0% Tan): 675 ± 296 pmol/L | NEFA ([4]; fructose +1.0% Tan): 1.58 ± 0.32 mEq/L | NO2/NO3 ([4]; fructose +1.0% Tan): 106.3 ± 27.9 µmol/L | Total cholesterol ([4]; fructose +1.0% Tan): 2.69 ± 0.23 mmol/L | Triacylglycerols ([4]; fructose +1.0% Tan): 1.35 ± 0.57 mmol/L | VLDL + LDL cholesterol ([4]; fructose +1.0% Tan): 0.81 ± 0.22 mmol/L | Serum nitrate/nitrite concentration ([4]; fructose with 1% tangeretin): doubled | Serum glucose ([4]; supplementation with tangeretin, fructose diet): not altered

O=c1cc(-c2ccc(O)c(O)c2)oc2cc(O)cc(O)c12 [luteolin]
inhibition of alpha-glucosidase, previous studies [5]: inhibition

COc1ccc([C@@H]2CC(=O)c3c(O)cc(O[C@@H]4O[C@H](CO[C@@H]5O[C@@H](C)[C@H](O)[C@@H](O)[C@H]5O)[C@@H](O)[C@H](O)[C@H]4O)cc3O2)cc1O [hesperidin]
inhibition of alpha-glucosidase, previous studies [5]: lack of alpha-glucosidase inhibition

O=c1cc(-c2ccc(O)cc2)oc2cc(O)cc(O)c12 [apigenin]
inhibition of alpha-glucosidase, previous studies [5]: inhibition

COc1ccc(-c2oc3c(OC)c(OC)c(OC)c(OC)c3c(=O)c2OC)cc1OC [Heptamethoxyflavone]
IC50 [6]: 500 µM | IC50 alpha-glucosidase [6]: 201.7 µg/mL (≈ 466 µM)
